Results published in ChEMBL document CHEMBL1909046, “DrugMatrix in vitro pharmacology data”.

Tests used:
[1] = molecular target: T1, Vasoactive intestinal polypeptide receptor 1 (Homo sapiens, UniProt P32241); format: cell membranes, Membrane; settings: ht-29; also: in other assays of this panel Not Active means under 50% inhibition at 10 µM
T1 sequence (P32241 whole entry): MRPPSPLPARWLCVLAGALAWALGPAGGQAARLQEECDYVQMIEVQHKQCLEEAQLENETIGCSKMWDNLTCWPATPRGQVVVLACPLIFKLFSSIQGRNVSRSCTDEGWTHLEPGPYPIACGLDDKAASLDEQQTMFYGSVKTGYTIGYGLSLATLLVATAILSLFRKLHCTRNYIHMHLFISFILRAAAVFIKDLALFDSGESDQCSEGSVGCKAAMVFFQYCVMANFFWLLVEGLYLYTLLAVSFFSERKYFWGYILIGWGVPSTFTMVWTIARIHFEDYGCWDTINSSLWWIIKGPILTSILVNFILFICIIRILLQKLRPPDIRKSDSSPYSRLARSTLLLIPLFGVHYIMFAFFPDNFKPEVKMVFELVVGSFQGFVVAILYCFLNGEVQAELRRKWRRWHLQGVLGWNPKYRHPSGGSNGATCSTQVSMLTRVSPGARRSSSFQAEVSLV

[2] = molecular target: Tyrosine-protein kinase Fyn (Homo sapiens, UniProt P06241); assay: biochemical; format: cell-based, Insect cells; settings: insect cells;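 also: enzymatic inhibition of Fyn kinase activity measured with Poly(Glu:Tyr) as the phosphorylation substrate; in other assays of this panel Not Active means under 50% inhibition at 10 µM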
[3] = molecular target: 5-hydroxytryptamine receptor 1B (Rattus norvegicus, UniProt P28564); format: cell membranes, Wistar, Cerebral cortex, Membrane; also: in other assays of this panel Not Active means under 50% inhibition at 10 µM
[4] = molecular target: Beta-2 adrenergic receptor (Homo sapiens, UniProt P07550); assay: DRUGMATRIX: Adrenergic beta2 radioligand binding (ligand: [3H] CGP-12177); format: cell membranes, Membrane; settings: cho; Not Active = under 50% inhibition at 10 µM
[5] = molecular target: Mitogen-activated protein kinase 1 (Homo sapiens, UniProt P28482); assay: DRUGMATRIX: Protein Serine/Threonine Kinase, ERK2 enzyme inhibition (substrate: Myelin Basic Protein); design: species or system Escherichia coli; settings: Not Active = under 50% inhibition at 10 µM
[6] = molecular target: Insulin receptor (Rattus norvegicus, UniProt P15127); format: cell membranes, Wistar, Liver, Membrane; also: in other assays of this panel Not Active means under 50% inhibition at 10 µM
[7] = molecular target: Sodium-dependent noradrenaline transporter (Homo sapiens, UniProt P23975); assay: DRUGMATRIX: Norepinephrine Transporter radioligand binding (ligand: [125I] RTI-55); format: cell membranes, MDCK, Membrane; settings: mdck; Not Active = under 50% inhibition at 10 µM
[8] = molecular target: T2, 3-hydroxy-3-methylglutaryl-coenzyme A reductase (Homo sapiens, UniProt P04035); design: species or system Escherichia coli
T2 sequence (P04035 whole entry): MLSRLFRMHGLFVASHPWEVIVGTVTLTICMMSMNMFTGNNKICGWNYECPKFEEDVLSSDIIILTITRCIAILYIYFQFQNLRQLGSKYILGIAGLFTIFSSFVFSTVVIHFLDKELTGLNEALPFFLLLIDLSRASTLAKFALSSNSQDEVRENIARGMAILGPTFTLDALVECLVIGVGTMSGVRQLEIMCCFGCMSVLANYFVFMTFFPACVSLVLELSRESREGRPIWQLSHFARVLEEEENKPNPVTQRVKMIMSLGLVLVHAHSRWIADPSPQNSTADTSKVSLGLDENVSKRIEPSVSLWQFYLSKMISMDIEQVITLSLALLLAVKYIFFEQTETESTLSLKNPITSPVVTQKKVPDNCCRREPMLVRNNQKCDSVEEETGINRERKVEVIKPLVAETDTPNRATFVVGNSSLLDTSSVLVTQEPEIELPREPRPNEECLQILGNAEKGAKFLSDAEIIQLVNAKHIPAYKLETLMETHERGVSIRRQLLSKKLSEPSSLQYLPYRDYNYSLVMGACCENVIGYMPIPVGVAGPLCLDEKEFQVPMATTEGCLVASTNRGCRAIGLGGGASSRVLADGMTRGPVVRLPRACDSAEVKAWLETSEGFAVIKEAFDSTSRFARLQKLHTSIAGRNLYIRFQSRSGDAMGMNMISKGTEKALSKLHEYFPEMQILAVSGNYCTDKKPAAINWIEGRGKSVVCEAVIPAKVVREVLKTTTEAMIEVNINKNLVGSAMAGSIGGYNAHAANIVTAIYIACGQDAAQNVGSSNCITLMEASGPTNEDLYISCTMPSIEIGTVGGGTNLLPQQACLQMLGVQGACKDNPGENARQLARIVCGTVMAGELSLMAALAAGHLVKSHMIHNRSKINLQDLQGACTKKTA

[9] = DRUGMATRIX: GABAA, Flunitrazepam, Central radioligand binding (ligand: [3H] Flunitrazepam); format: cell membranes, Rattus norvegicus, Wistar, Brain, Membrane; settings: Not Active = under 50% inhibition at 10 µM
[10] = DRUGMATRIX: Phosphodiesterase PDE4 enzyme inhibition (substrate: [3H]cAMP + cAMP); settings: u-937; Not Active = under 50% inhibition at 10 µM
[11] = molecular target: T3, Progesterone receptor (Bos taurus, UniProt Q690N0); assay: DRUGMATRIX: Progesterone radioligand binding (ligand: [3H] R-5020); format: tissue-based, Uterus; settings: Not Active = under 50% inhibition at 10 µM
T3 sequence (Q690N0 whole entry): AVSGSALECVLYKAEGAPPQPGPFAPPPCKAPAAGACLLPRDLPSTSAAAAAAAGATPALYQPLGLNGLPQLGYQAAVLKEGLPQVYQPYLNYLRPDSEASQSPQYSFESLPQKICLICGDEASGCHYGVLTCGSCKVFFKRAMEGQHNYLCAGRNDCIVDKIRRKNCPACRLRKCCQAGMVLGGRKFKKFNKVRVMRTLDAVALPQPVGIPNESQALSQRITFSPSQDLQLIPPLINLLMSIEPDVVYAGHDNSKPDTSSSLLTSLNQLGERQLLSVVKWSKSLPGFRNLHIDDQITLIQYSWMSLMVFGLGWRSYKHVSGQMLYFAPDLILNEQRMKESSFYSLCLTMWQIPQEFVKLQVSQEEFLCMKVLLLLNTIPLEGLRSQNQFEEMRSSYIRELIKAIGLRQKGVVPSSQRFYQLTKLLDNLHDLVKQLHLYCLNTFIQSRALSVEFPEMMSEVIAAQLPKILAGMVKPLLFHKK

[12] = DRUGMATRIX: Purinergic P2X radioligand binding (ligand: [3H] alpha, beta-Methylene-ATP); format: cell membranes, Oryctolagus cuniculus, New Zealand albino, Urinary bladder, Membrane; settings: Not Active = under 50% inhibition at 10 µM

Sequence of 5-hydroxytryptamine receptor 1B (P28564 whole entry): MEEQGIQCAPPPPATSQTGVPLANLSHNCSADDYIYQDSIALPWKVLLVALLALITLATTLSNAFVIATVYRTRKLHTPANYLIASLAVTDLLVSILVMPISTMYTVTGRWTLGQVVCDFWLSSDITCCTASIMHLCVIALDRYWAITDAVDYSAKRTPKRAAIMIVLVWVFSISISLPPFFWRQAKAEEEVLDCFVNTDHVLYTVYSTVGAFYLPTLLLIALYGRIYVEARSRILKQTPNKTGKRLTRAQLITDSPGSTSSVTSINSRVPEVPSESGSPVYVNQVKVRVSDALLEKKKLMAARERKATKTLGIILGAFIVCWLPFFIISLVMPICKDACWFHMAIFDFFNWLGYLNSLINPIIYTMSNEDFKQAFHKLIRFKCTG
Sequence of Insulin receptor (P15127 27-759 limits assumed): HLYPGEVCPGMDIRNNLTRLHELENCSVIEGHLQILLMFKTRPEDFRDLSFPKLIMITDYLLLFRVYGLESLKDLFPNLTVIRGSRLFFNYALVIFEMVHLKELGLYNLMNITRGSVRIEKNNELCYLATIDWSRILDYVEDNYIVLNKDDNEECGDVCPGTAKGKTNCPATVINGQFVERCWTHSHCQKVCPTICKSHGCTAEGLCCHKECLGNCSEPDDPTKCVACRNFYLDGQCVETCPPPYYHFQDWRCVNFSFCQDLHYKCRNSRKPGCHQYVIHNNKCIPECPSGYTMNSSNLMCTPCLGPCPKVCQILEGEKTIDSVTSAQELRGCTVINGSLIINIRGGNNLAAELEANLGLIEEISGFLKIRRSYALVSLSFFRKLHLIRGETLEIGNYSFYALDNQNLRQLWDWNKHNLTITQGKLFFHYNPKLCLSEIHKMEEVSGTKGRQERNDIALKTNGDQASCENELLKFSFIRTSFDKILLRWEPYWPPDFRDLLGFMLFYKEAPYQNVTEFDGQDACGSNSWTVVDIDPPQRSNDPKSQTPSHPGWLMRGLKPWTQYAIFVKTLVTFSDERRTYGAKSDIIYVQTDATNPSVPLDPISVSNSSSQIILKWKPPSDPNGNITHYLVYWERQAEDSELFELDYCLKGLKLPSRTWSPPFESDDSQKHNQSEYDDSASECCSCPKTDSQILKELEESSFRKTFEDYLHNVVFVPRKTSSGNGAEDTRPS
Sequence of Insulin receptor (P15127 764-1383 limits assumed): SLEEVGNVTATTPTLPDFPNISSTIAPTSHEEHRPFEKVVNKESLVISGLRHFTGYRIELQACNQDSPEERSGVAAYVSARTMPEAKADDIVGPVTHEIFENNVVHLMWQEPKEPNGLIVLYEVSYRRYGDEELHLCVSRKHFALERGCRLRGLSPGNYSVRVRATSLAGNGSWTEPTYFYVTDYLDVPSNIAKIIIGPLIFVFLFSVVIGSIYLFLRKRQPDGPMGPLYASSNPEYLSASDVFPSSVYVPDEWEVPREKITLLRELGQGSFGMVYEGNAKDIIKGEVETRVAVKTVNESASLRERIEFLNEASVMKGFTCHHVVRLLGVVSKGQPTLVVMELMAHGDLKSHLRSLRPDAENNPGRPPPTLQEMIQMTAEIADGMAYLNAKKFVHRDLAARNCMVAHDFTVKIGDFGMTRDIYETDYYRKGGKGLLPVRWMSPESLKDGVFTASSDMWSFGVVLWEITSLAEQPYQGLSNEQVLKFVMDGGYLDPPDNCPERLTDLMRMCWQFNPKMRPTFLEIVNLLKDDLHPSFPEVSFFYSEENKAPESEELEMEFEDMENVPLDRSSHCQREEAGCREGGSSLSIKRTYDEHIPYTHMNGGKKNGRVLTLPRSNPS
Sequence of Sodium-dependent noradrenaline transporter (P23975 whole entry): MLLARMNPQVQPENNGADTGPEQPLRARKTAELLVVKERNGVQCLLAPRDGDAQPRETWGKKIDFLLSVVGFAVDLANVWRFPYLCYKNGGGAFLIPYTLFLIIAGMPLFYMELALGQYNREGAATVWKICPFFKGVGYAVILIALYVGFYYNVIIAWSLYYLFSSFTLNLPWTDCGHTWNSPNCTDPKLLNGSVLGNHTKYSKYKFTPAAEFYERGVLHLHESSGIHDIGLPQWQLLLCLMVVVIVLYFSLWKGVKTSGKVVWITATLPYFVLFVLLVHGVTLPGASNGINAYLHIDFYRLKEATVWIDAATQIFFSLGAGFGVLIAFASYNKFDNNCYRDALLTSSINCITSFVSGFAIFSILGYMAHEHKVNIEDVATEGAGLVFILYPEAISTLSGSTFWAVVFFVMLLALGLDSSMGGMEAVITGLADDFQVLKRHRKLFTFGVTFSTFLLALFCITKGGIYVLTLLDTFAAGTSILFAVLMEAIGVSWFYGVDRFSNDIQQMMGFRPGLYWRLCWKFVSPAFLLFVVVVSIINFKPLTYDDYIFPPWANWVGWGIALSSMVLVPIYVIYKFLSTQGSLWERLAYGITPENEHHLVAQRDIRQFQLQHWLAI
Sequence of Tyrosine-protein kinase Fyn (P06241 whole entry): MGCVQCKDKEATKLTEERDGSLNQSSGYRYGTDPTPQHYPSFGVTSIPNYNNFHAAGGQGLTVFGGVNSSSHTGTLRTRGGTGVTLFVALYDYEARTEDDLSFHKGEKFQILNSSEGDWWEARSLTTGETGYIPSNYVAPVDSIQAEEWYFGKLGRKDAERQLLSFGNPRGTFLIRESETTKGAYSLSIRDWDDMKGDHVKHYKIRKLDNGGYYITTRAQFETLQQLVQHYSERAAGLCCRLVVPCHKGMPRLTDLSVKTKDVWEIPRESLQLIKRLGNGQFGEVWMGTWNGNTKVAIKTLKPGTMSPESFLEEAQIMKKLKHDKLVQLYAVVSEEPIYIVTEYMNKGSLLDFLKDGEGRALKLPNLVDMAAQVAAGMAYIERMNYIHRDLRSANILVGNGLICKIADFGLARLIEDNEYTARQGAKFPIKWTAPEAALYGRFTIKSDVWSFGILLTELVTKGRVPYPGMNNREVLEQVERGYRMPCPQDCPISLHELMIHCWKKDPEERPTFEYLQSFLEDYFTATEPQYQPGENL
Sequence of Mitogen-activated protein kinase 1 (P28482 whole entry): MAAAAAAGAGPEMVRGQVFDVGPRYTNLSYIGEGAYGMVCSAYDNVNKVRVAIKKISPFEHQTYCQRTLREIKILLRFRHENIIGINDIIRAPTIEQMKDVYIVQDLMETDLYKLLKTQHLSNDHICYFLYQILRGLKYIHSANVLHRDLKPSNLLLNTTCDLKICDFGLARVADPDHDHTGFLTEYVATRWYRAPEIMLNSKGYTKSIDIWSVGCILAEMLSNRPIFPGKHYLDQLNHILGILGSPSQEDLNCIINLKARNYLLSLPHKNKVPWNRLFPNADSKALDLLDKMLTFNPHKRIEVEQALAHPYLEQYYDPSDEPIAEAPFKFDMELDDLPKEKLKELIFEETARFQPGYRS

CN(C)[C@@H]1C(O)=C(C(N)=O)C(=O)[C@@]2(O)C(O)=C3C(=O)c4c(O)cccc4[C@@](C)(O)[C@H]3[C@H](O)[C@@H]12 [OXYTETRACYCLINE]
Not Active: IC50 [1] | IC50 [2] | IC50 [3] | IC50 [4] | IC50 [5] | IC50 [6] | IC50 [7] | IC50 [8] | IC50 [9] | Ki [9] | IC50 [10] | Ki [10] | IC50 [11] | IC50 [12] | Ki [12]

CC(C)(S)[C@@H](N)C(=O)O [PENICILLAMINE]
Not Active: IC50 [1] | IC50 [2] | IC50 [3] | IC50 [4] | IC50 [5] | IC50 [6] | IC50 [7] | IC50 [8] | IC50 [9] | Ki [9] | IC50 [10] | Ki [10] | IC50 [11] | IC50 [12] | Ki [12]

CC(=O)CCCCn1c(=O)c2c(ncn2C)n(C)c1=O [PENTOXIFYLLINE]
Not Active: IC50 [1] | IC50 [2] | IC50 [3] | IC50 [4] | IC50 [5] | IC50 [6] | IC50 [7] | IC50 [8] | IC50 [9] | Ki [9] | IC50 [10] | Ki [10] | IC50 [11] | IC50 [12] | Ki [12]

O=C1NC(=O)C(c2ccccc2)(c2ccccc2)N1 [PHENYTOIN]
Not Active: IC50 [1] | IC50 [2] | IC50 [3] | IC50 [4] | IC50 [5] | IC50 [6] | IC50 [7] | IC50 [8] | IC50 [9] | Ki [9] | IC50 [10] | Ki [10] | IC50 [11] | IC50 [12] | Ki [12]

CNC(=O)Oc1ccc2c(c1)[C@]1(C)CCN(C)[C@@H]1N2C [PHYSOSTIGMINE]
Not Active: IC50 [1] | IC50 [2] | IC50 [3] | IC50 [4] | IC50 [5] | IC50 [6] | IC50 [7] | IC50 [8] | IC50 [9] | Ki [9] | IC50 [10] | Ki [10] | IC50 [11] | IC50 [12] | Ki [12]

C=C(C)[C@@H]1[C@H]2OC(=O)[C@@H]1[C@]1(O)C[C@H]3O[C@]34C(=O)O[C@H]2[C@]14C [PICROTOXININ]
Not Active: IC50 [1] | IC50 [2] | IC50 [3] | IC50 [4] | IC50 [5] | IC50 [6] | IC50 [7] | IC50 [8] | IC50 [9] | Ki [9] | IC50 [10] | Ki [10] | IC50 [11] | IC50 [12] | Ki [12]

CN1C(C(=O)Nc2ccccn2)=C(O)c2ccccc2S1(=O)=O [PIROXICAM]
Not Active: IC50 [1] | IC50 [2] | IC50 [3] | IC50 [4] | IC50 [5] | IC50 [6] | IC50 [7] | IC50 [8] | IC50 [9] | Ki [9] | IC50 [10] | Ki [10] | IC50 [11] | IC50 [12] | Ki [12]

CCC1(c2ccccc2)C(=O)NCNC1=O [PRIMIDONE]
Not Active: IC50 [1] | IC50 [2] | IC50 [3] | IC50 [4] | IC50 [5] | IC50 [6] | IC50 [7] | IC50 [8] | IC50 [9] | Ki [9] | IC50 [10] | Ki [10] | IC50 [11] | IC50 [12] | Ki [12]

CCCc1cc(=O)[nH]c(=S)[nH]1 [PROPYLTHIOURACIL]
Not Active: IC50 [1] | IC50 [2] | IC50 [3] | IC50 [4] | IC50 [5] | IC50 [6] | IC50 [7] | IC50 [8] | IC50 [9] | Ki [9] | IC50 [10] | Ki [10] | IC50 [11] | IC50 [12] | Ki [12]

CARBOPLATIN
Not Active: IC50 [1] | Ki [1] | IC50 [2] | Ki [2] | IC50 [3] | Ki [3] | IC50 [4] | Ki [4] | IC50 [5] | Ki [5] | IC50 [6] | Ki [6] | IC50 [7] | Ki [7] | IC50 [8] | Ki [8] | IC50 [9] | Ki [9] | IC50 [10] | Ki [10] | IC50 [11] | Ki [11] | IC50 [12] | Ki [12]
